These results are taken from patent US7728128B2, “Dibenzo[c,h][1,5]naphthyridines and their use as DNA probes” (Institut National de la Sante et de la Recherche Medicate …, priority 2006, dated 2010).

This assay concerns CT DNA. Description: viscometry (hydrodynamic studies) of CT DNA solutions. Conditions: CT DNA 0.5 mM, drug 0.1 mM (0.2 dye/bp ratio). It is filed as binding, calf. How it is done:
Calf thymus (CT) DNA was dissolved in 50 mM Na-phosphate buffer, pH 7.2, to a concentration of 0.1 or 0.5 mM relative to base pairs as described in the legend for FIGS. 3A and B. DNA solution was allowed to run through a custom-made capillary viscometer and the time necessary for the meniscus to pass a certain distance was measured using a stopwatch. All experiments were performed at 23° C. Viscosity values were calculated using the equation: η=(t−t0)/t0, where t is the flow time of DNA solution (with or without dye), and t0 is the flow time of Na-phosphate buffer alone. For each control and DNA solutions with dyes flow times were measured three to five times. Viscosity of DNA solutions with dyes were calculated as (η/η0)^1/3, where η0 and η are relative viscosities of the CT DNA solution in the absence and presence of the dye, respectively. This calculation stems from the relationship which exists between the relative solution viscosity and the relative contour length (L/L0): L/L0=(η/η0)^1/3, where L stands for the apparent molecular length (Muller, W. et al., 1968, J Mol Biol, 35, 251-290). Average viscosity values and standard error of the mean (SEM) were determined using (η/η0)^1/3 values calculated for each time flow measurement.
DNA-binding dyes interact with dsDNA by intercalation or external binding, or both. External binding most often involves the minor groove of DNA (Kopka et al.; Pjura, P. E., et al., 1987, J Mol Biol, 197, 257-271). Intercalation occurs when a ligand inserts itself between the opposite strands of DNA. In order to determine the mechanism of compound I binding to dsDNA, the inventors performed hydrodynamic studies. This approach is based on the observation that intercalating molecules increase the length of DNA fragments and, consequently, enhance the viscosity of DNA solutions (Muller W. et al.; Suh, D. et al., 1995, Bioorg Med Chem, 3, 723-728). For this experiment, compound I has been compared to the known DNA intercalator ethidium bromide and to the external minor groove binder Hoechst 33258. CT DNA at 0.5 mM was mixed with drugs at 0.1 mM concentration (0.2 dye/bp ratio) and used for viscometry measurements.
The inventors then wondered whether the increase in viscosity is equally matched by the increase in fluorescence intensity. To answer this question, CT DNA at 0.1 mM (bp) was mixed with increasing amounts of compound I and viscosity measurements were performed as above. The viscosity of the DNA/compound I solutions increased up to a dye/bp ratio 1 (FIG. 3B). To correlate the increase in viscosity with fluorescence, the inventors measured fluorescence intensities at 484 nm of the compound I/DNA solutions used for the viscosity measurements.

In the case of `CN1CCN(c2ccc3[nH]c(-c4ccc5[nH]c(-c6ccc(O)cc6)nc5c4)nc3c2)CC1` [Hoechst 33258, reference compound], the “effect on viscosity of DNA solution” value is given as “decrease slightly”.
